Test results reported in ChEMBL document CHEMBL4680330, “Soloxolone methyl, as a 18βH-glycyrrhetinic acid derivate, may result in endoplasmic reticulum stress to induce apoptosis in breast cancer cells” (Bioorg Med Chem, 2021).
The source made the active and inactive calls. The calls are words filed in the database; no cut-off is given here.

Legend:
[1] = Induction of caspase 3/7 activity in human MDA-MB-231 cells assessed as induction of apoptosis by measuring early apoptotic cells at 10 uM incubated for 24 hrs by flow cytometry analysis (reference value: 0.35 %); type: functional
MCF7 [2] = experiment: Induction of apoptosis in human MCF7 cells assessed as cleaved pro-caspase 3 level at 10 uM incubated for 24 hrs by Western blot analysis (reference value: 1); type: functional
[3] = Induction of caspase 3/7 activity in human MCF7 cells assessed as induction of apoptosis by measuring late apoptotic cells at 10 uM incubated for 24 hrs by flow cytometry analysis (reference value: 22.90 %); type: functional
MCF7 [4] = experiment: Induction of apoptosis in human MCF7 cells assessed as PARP level at 10 uM incubated for 24 hrs by Western blot analysis (reference value: 1); type: functional
MDA-MB-231 [5] = experiment: Induction of cell death in human MDA-MB-231 cells assessed as downregulation of PARP gene at 10 uM measured after 48 hrs by RT-PCR analysis; type: functional, cell-based
MCF7 [6] = experiment: Induction of apoptosis in human MCF7 cells at 10 uM by annexin V-FITC and PI staining based flow cytometry analysis; type: functional, cell-based; details: TDE = time-dependent effect
MCF7 [7] = experiment: Induction of cell death in human MCF7 cells assessed as downregulation of MLKL gene at 10 uM incubated for 48 hrs by RT-PCR analysis; type: functional, cell-based
MCF7 [8] = experiment: Induction of endoplasmic reticulum stress in human MCF7 cells assessed as IRE1-alpha expression at 10 uM incubated for 24 hrs by Western blot analysis (reference value: 1); type: functional
[9] = Induction of caspase 3/7 activity in human MCF7 cells assessed as induction of apoptosis by measuring viable cells at 10 uM incubated for 24 hrs by flow cytometry analysis (reference value: 73.10 %); type: functional
MCF7 [10] = experiment: Induction of cell death in human MCF7 cells assessed as downregulation of PARP gene at 10 uM measured after 48 hrs by RT-PCR analysis; type: functional, cell-based
MDA-MB-231 [11] = experiment: Induction of late apoptosis in human MDA-MB-231 cells assessed as increase in PI […] at 10 uM by Hoechst 33342 and PI staining based fluorescence microscopic analysis; type: functional, cell-based; details: TDE = time-dependent effect
MCF7 [12] = experiment: Induction of early apoptosis in human MCF7 cells assessed as increase in pycnotic nuclei at 10 uM incubated for 24 hrs by Hoechst 33342 and PI staining based fluorescence microscopic analysis; type: functional, cell-based
MDA-MB-231 [13] = experiment: Induction of endoplasmic reticulum stress in human MDA-MB-231 cells assessed as CHOP expression at 10 uM incubated for 24 hrs by Western blot analysis (reference value: 1); type: functional
MCF7 [14] = experiment: Induction of cell death in human MCF7 cells assessed as downregulation of RIPK gene at 10 uM measured after 48 hrs by RT-PCR analysis; type: functional, cell-based
MCF7 [15] = experiment: Induction of early apoptosis in human MCF7 cells assessed as increase in PI negativity at 10 uM incubated for 24 hrs by Hoechst 33342 and PI staining based fluorescence microscopic analysis; type: functional, cell-based
MDA-MB-231 [16] = experiment: Induction of apoptosis in human MDA-MB-231 cells assessed as cleaved pro-caspase 3 level at 10 uM incubated for 24 hrs by Western blot analysis (reference value: 1); type: functional
MCF7 [17] = experiment: Cytotoxicity against human MCF7 cells assessed as reduction in cell viability incubated for 48 hrs by ATP based luminometry; type: functional; details: MCF7, 48 h
MCF7 [18] = experiment: Induction of apoptosis in human MCF7 cells assessed as pro-caspase 8 level at 10 uM incubated for 24 hrs by Western blot analysis (reference value: 1); type: functional
MCF7 [19] = experiment: Induction of late apoptosis in human MCF7 cells assessed as increase in rate of formation of pycnotic nuclei at 10 uM by Hoechst 33342 and PI staining based fluorescence microscopic analysis; type: functional, cell-based; details: TDE = time-dependent effect
MDA-MB-231 [20] = experiment: Induction of endoplasmic reticulum stress in human MDA-MB-231 cells assessed as BIP expression at 10 uM incubated for 24 hrs by Western blot analysis (reference value: 1); type: functional
[21] = Induction of caspase 3/7 activity in human MDA-MB-231 cells assessed as induction of apoptosis by measuring viable cells at 10 uM incubated for 24 hrs by flow cytometry analysis (reference value: 97.25 %); type: functional
MDA-MB-231 [22] = experiment: Induction of cell death in human MDA-MB-231 cells assessed as upregulation of BECN1 gene at 10 uM measured after 48 hrs by RT-PCR analysis; type: functional, cell-based
MDA-MB-231 [23] = experiment: Induction of ROS production in human MDA-MB-231 cells at 10 uM incubated for 24 hrs by flow cytometry analysis relative to control; type: functional
MCF7 [24] = experiment: Cytotoxicity against human MCF7 cells assessed as reduction in cell viability incubated for 24 hrs by ATP based luminometry; type: functional; details: MCF7, 24 h
MCF7 [25] = experiment: Induction of apoptosis in human MCF7 cells assessed as viable cells at 10 uM incubated for 24 hrs by annexin V-FITC and PI staining based flow cytometry analysis (reference value: 69.60 %); type: functional; details: read-out: Activity
[26] = Induction of caspase 3/7 activity in human MCF7 cells assessed as induction of apoptosis by measuring necrotic cells at 10 uM incubated for 24 hrs by flow cytometry analysis (reference value: 3.30 %); type: functional
[27] = Induction of caspase 3/7 activity in human MCF7 cells assessed as induction of apoptosis by measuring early apoptotic cells at 10 uM incubated for 24 hrs by flow cytometry analysis (reference value: 0.70 %); type: functional
MDA-MB-231 [28] = experiment: Cytotoxicity against human MDA-MB-231 cells assessed as reduction in cell viability incubated for 24 hrs by ATP based luminometry; type: functional; details: MDA-MB-231, 24 h
MCF7 [29] = experiment: Induction of cell death in human MCF7 cells assessed as downregulation of MLKL gene at 10 uM measured after 48 hrs by RT-PCR analysis; type: functional, cell-based
MCF7 [30] = experiment: Induction of cell death in human MCF7 cells assessed as upregulation of BECN1 gene at 10 uM measured after 48 hrs by RT-PCR analysis; type: functional, cell-based
MCF7 [31] = experiment: Induction of cell death in human MCF7 cells assessed as downregulation of PARP gene at 10 uM incubated for 48 hrs by RT-PCR analysis; type: functional, cell-based
MDA-MB-231 [32] = experiment: Induction of apoptosis in human MDA-MB-231 cells assessed as cleaved PARP level at 10 uM incubated for 24 hrs by Western blot analysis (reference value: 1); type: functional
MCF7 [33] = experiment: Induction of endoplasmic reticulum stress in human MCF7 cells assessed as CHOP expression at 10 uM incubated for 24 hrs by Western blot analysis (reference value: 1); type: functional
MCF7 [34] = experiment: Induction of late apoptosis in human MCF7 cells assessed as increase in PI […] at 10 uM by Hoechst 33342 and PI staining based fluorescence microscopic analysis; type: functional, cell-based; details: TDE = time-dependent effect
MCF7 [35] = experiment: Induction of cell death in human MCF7 cells assessed as upregulation of TNFRSF10B gene at 10 uM incubated for 24 hrs by RT-PCR analysis; type: functional, cell-based
MCF7 [36] = experiment: Induction of apoptosis in human MCF7 cells assessed as cytokeratin 18 by measuring increase in M-30 level at 10 uM incubated for 24 hrs by ELISA; type: functional, cell-based

With `COC(=O)[C@@]1(C)CC[C@]2(C)CC[C@]3(C)[C@H](C(=O)C=C4[C@@]5(C)C=C(C#N)C(=O)C(C)(C)[C@@H]5CC[C@]43C)[C@@H]2C1` the Activity [1] was 12.75%, the “fold change (FC)” value (MCF7 [2]) was 1.2 and the Activity [3] was 24.55%. The “fold change (FC)” value (MCF7 [4]) was 0.3, the Activity (MDA-MB-231 [5]) was “inactive” and the Activity (MCF7 [6]) was “Tde”. For the same compound, the Activity (MCF7 [7]) was “Active”, the “fold change (FC)” value (MCF7 [8]) was 0.6 and the Activity [9] was 60.2%. The Activity (MCF7 [10]) was “inactive”, the Activity (MDA-MB-231 [11]) was “Tde” and the Activity (MCF7 [12]) was “Active”. For the same compound, the “fold change (FC)” value (MDA-MB-231 [13]) was 6, the Activity (MCF7 [14]) was “inactive” and the Activity (MCF7 [15]) was “Active”. The “fold change (FC)” value (MDA-MB-231 [16]) was 12.7, the IC50 (MCF7 [17]) was 4.22 µM and the “fold change (FC)” value (MCF7 [18]) was 1.2. For the same compound, the Activity (MCF7 [19]) was “Tde”, the “fold change (FC)” value (MDA-MB-231 [20]) was 2 and the Activity [21] was 10.35%. For the same compound, the Activity (MDA-MB-231 [22]) was “inactive”, the Activity (MDA-MB-231 [23]) was 49.6% and the IC50 (MCF7 [24]) was 11.7 µM. The viability at 10 µM (MCF7 [25]) was 70.7%, the Activity [26] was 14.7% and the Activity [27] was 0.55%. For the same compound, the IC50 (MDA-MB-231 [28]) was 6.83 µM, the Activity (MCF7 [29]) was “inactive” and the Activity (MCF7 [30]) was “inactive”. For the same compound, the Activity (MCF7 [31]) was “Active”, the “fold change (FC)” value (MDA-MB-231 [32]) was 6.3 and the “fold change (FC)” value (MCF7 [33]) was 0.3. For the same compound, the Activity (MCF7 [34]) was “Tde”, the Activity (MCF7 [35]) was “Active” and the Activity (MCF7 [36]) was “inactive”.
